Values joined by “and” are separate entries in the source; they are usually repeats but may differ in a detail not shown here. Equal entries are not always repeated. Where two headings read alike, the source gives them in different places.
Experiments:
[1] = AlphaScreen counterscreen against bio-H3K4me2 peptide in the absence of enzyme (artifact signal); settings: for Artifact Signal (percent): effect of the compound when incubated with bio-H3K4me2 peptide (counterscreen, no enzyme); for Artifact signal: effect of the compound when it is incubated with bio-H3K4me2 peptide: counterscreen, no enzyme;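 as to all read-outs here: counterscreen run without enzyme against bio-H3K4me2 peptide to remove false positive hits from the JARID1 demethylase AlphaScreen screen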
JARID1B = molecular target: T1, JARID1B (Homo sapiens, UniProt Q9UGL1); assay: FLAG-JARID1B histone demethylase assay with AlphaScreen detection (HTS and dose response); assay type: biochemical; settings: for Assay − Artifact Signal (percent): assay signal minus artifact signal; for inhibition at 20 µM / Inhibitory effect (percent): high-throughput screen, compound 20 μM; for inhibition at 20 µM: read-out: Inhibitory effect (percent); for Assay Signal (percent) / Validation result of HTS active: effect of the compound in the JARID1B AlphaScreen demethylase assay: validation of HTS actives; for Assay Signal (percent): effect of compound in JARID1B AlphaScreen assay; for Validation result of HTS active: effect of the compound in the JARID1B AlphaScreen demethylase assay: total signal before subtraction of artifact signal;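 as to Assay Signal (percent): compound tested at 20 µM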;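 as to Assay − Artifact Signal (percent): compound tested at 20 µM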;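 as to all read-outs here: FLAG-tagged JARID1B at 4 nM acting on a biotinylated H3K4me3 peptide, demethylation read by AlphaScreen luminescence, with hits checked against bio-H3K4me2 without enzyme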
T1 construct: The FLAG tagged full length JARID1B enzyme was expressed in Sf21 insect cells using FLAG-JARID1B baculoviruses; FLAG (N); made in house; host or cells: Sf21 insect cells (baculovirus)

[2] = standard demethylase conditions (10 μM α-KG, 50 μM Fe (II))
[3] = IDs marked *: additional hits under reaction condition with 1 mM α-KG

T1 sequence (Q9UGL1 whole entry): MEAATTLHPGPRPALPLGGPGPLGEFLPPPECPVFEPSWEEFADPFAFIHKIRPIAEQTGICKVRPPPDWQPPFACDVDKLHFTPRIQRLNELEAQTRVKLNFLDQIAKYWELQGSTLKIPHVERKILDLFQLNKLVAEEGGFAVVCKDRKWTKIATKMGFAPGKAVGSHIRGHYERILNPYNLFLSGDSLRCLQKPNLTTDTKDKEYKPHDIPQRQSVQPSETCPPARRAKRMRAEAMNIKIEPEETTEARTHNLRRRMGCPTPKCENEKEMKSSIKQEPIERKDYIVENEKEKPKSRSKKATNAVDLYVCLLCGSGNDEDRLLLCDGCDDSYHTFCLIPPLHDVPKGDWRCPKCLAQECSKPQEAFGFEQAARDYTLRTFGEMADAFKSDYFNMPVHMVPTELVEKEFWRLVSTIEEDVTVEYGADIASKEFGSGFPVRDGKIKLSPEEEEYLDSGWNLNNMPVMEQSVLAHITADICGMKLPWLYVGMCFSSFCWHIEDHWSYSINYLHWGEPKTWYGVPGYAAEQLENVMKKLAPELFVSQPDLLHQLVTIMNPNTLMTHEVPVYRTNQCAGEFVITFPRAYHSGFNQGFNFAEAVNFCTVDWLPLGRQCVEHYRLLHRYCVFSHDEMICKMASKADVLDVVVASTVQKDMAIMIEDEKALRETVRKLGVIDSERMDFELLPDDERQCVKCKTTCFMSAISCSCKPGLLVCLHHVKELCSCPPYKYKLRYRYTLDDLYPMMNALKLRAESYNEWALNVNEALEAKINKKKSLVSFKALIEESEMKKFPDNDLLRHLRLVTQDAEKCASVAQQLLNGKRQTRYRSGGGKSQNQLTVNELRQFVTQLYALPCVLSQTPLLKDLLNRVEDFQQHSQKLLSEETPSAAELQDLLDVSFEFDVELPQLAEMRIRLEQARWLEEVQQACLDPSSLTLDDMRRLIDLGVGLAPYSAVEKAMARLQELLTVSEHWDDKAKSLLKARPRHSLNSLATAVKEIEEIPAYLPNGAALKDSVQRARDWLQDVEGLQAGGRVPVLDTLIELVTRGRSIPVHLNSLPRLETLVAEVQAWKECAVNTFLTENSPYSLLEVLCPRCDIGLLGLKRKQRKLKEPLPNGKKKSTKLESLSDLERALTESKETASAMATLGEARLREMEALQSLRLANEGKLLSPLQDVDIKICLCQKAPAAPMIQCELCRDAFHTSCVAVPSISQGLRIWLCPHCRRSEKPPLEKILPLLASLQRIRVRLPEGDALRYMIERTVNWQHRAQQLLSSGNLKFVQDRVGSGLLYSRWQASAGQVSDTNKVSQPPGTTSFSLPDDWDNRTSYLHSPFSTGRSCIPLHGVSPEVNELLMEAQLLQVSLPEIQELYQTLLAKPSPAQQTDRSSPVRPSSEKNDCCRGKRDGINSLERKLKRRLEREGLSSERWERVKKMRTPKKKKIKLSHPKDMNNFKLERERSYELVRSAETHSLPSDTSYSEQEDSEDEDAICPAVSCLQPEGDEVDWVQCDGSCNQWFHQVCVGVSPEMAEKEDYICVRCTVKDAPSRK

Row | SMILES | Artifact Signal (percent) [1] | Assay − Artifact Signal (percent) (JARID1B) | inhibition at 20 µM (JARID1B; [2]) | Assay Signal (percent) (JARID1B) | Artifact signal: effect of the compound when it is incubated with bio-H3K4me2 peptide [1] | Validation result of HTS active: effect of the compound in the JARID1B AlphaScreen demethylase assay (JARID1B) | Inhibitory effect (percent) (JARID1B; [2]) | inhibition at 20 µM (JARID1B; [3])
1 | C=CCn1c(-c2ccc([N+](=O)[O-])cc2)n[nH]c1=S [YU147005] | 3.36% | 34.06% | 36.8% | 37.42% |  |  |  | 
2 | Cc1cccc(NC(c2ccccn2)c2ccc3cccnc3c2O)n1 (stereo not shown) [YU172178] | 37.93% | 8.53% | 72.3% | 46.45% |  |  |  | 
3 | CC(=O)[C@]1(O)Cc2c(O)c3c(c(O)c2[C@@H](O[C@H]2C[C@H](N)[C@H](O)[C@H](C)O2)C1)C(=O)c1ccccc1C3=O.Cl (stereo in doubt) [YU040321, IDARUBICIN HCl, reference compound] |  |  | 92.3% |  | −9.53 | −11.32 |  | 
4 | CCOc1cc(Cl)c(S(=O)(=O)n2ccnc2)cc1Cl [YU152583] |  |  | 45.9% |  | −4.74 | 1.32 |  | 
5 | O=c1oc2c(O)c(O)cc3c(=O)oc4c(O)c(O)cc1c4c23 [YU034320, ELLAGIC ACID, reference compound] | 2.37% | 9.70% |  | 12.08% | 31.44 | 37.80 | 61.25% and 40.88% | 
6 | O=C(O[C@@H]1Cc2c(O)cc(O)cc2O[C@@H]1c1cc(O)c(=O)c2c(O)c(O)cc([C@H]3Oc4cc(O)cc(O)c4C[C@H]3OC(=O)c3cc(O)c(O)c(O)c3)c2c1)c1cc(O)c(O)c(O)c1 (stereo in doubt) [YU155100, THEAFLAVIN DIGALLATE, reference compound] |  |  | 105% |  | 98.76 | 104.28 |  | 
7 | Cc1nc(NC(=O)c2cc3ccccc3o2)sc1C [YU147750] |  |  | 86.4% |  | −6.59 | −2.53 |  | 
8 | Cc1cc(C(=O)Nc2c(C)n(C)n(-c3ccccc3)c2=O)c(C)o1 [YU153128] | 4.15% | 8.37% | 101% | 12.52% |  |  |  | 
9 | N#Cc1c(NC(=O)c2cnn3cccnc23)sc2c1CCCC2 [YU152893] |  |  | 84.5% |  | 1.62 | 9.21 |  | 
10 | COc1ccccc1OCc1nnc(S)n1C [YU146471] | −1.64% | 47.93% | 36.4% | 46.29% |  |  |  | 
11 | Oc1cc(O)c2c(c1)O[C@H](c1ccc(O)c(O)c1)[C@@H](O)C2 [YU033631, CIANIDANOL, reference compound] | 4.84% | 26.12% |  | 30.96% |  |  |  | 41.5%
12 | Cn1c(=O)n(C)c2cc(S(=O)(=O)NNc3ccccc3)ccc21 [YU153899] |  |  |  |  | 0.54 | 8.44 |  | 
13 | C=NC(C(=O)N[C@H]1C(=O)N2C1SC(C)(C)C2C(=O)O)c1ccccc1 (stereo in doubt) [YU034263, METAMPICILLIN SODIUM, reference compound] | 0.13% | 24.14% | 95.6% | 24.27% | 0.44 | 3.14 |  | 
14 | COC(=O)Nc1nnc(CC2CCCC2)s1 [YU146034] | <2.79% | 21.12% | 33% | 18.33% |  |  |  | 
15 | CCCCOc1ccc(NC(=O)CSc2nnnn2C)cc1 [YU152624] |  |  | 37.7% |  | −4.45 | −1.90 |  | 
16 | CC(C)(C#N)O[C@@H]1O[C@H](CO)[C@@H](O)[C@H](O)[C@H]1O [YU155312, LINAMARIN, reference compound] | −6.55% | 99.23% | 60.3% | 92.68% |  |  |  | 
17 | O=C(O[C@@H]1Cc2c(O)cc(O)cc2O[C@@H]1c1cc(O)c(=O)c2c(O)c(O)cc([C@H]3Oc4cc(O)cc(O)c4C[C@H]3O)c2c1)c1cc(O)c(O)c(O)c1 [YU155347, THEAFLAVIN MONOGALLATES, reference compound] |  |  | 104% |  | 95.69 | 103.69 |  | 
18 | Oc1c(Cl)cc(Cl)cc1Sc1cc(Cl)cc(Cl)c1O [YU033712, BITHIONOL, reference compound] |  |  |  |  | −3.70 | 0.82 |  | 47.6%

Row | SMILES | Artifact Signal (percent) [1] | Assay − Artifact Signal (percent) (JARID1B) | inhibition at 20 µM (JARID1B; [2]) | Assay Signal (percent) (JARID1B) | Artifact signal: effect of the compound when it is incubated with bio-H3K4me2 peptide [1] | Validation result of HTS active: effect of the compound in the JARID1B AlphaScreen demethylase assay (JARID1B) | Inhibitory effect (percent) (JARID1B; [2]) | inhibition at 20 µM (JARID1B; [3])
19 | Oc1cc(O)cc(/C=C/c2ccc(O)c(O)c2)c1 [YU154843, PICEATANNOL, reference compound] | −4.85% | 18.12% | 34% | 13.28% |  |  |  | 
20 | CC(C)=CCc1c2c(c3occ(-c4ccc(O)c(O)c4)c(=O)c3c1O)C=CC(C)(C)O2 [YU033628, POMIFERIN, reference compound] |  |  |  |  | 13.55 | 6.60 | 68.25% | 
21 | O=c1c(O)c(-c2cc(O)c(O)c(O)c2)oc2cc(O)cc(O)c12 [YU155300, MYRICETIN, reference compound] |  |  | 72.1% |  | 69.07 | 74.84 |  | 
22 | CN(C)C(=S)SSC(=S)N(C)C [YU034426, THIRAM, reference compound] | 7.49% | 59.23% | 64.2% | 66.73% |  |  |  | 
23 | COc1ccc2c(CCN)c[nH]c2c1.Cl [YU145407] | −1.79% | 8.55% | 43% | 6.76% |  |  |  | 
24 | CCC(=O)Nc1cnc(N2CCN(c3ccc(Cl)cc3)CC2)c(C(=O)O)c1 [YU208250] | 7.01% | 14.69% | 44.5% | 21.70% |  |  |  | 
25 | Cc1ccc(C(=O)Nc2nnc(-c3ccncc3)s2)o1 [YU148889] | 6.66% | 9.49% | 44.6% | 16.16% |  |  |  | 
26 | O=C1C=C2CC3(O)COc4c(ccc(O)c4O)C3=C2C=C1O (stereo not shown) [YU155257, HEMATEIN, reference compound] |  |  | 105% |  | 99.07 | 104.73 |  | 
27 | Cc1cccc(NC(c2cccnc2)c2ccc3cccnc3c2O)c1 (stereo not shown) [YU172169] | 61.44% | 11.78% | 72.7% | 73.22% |  |  |  | 
28 | O=c1c(O)c(-c2ccc(O)c(O)c2)oc2cc(O)cc(O)c12 [YU034090, QUERCETIN, reference compound] |  |  |  |  | 58.14 | 62.82 | 80.17% | 
29 | CCC(=O)Nc1ccc(N2CCC(C(N)=O)(N3CCCCC3)CC2)c(C(=O)O)c1 [YU208193] | 16.13% | 11.50% | 46.1% | 27.63% |  |  |  | 
30 | Cc1cccc(NC(c2cccnc2)c2ccc3cccnc3c2O)n1 (stereo not shown) [YU172179] | 53.31% | 10.43% | 58.1% | 63.74% |  |  |  | 
31 | O=C1NC(=O)C(c2ccc(Cl)cc2)N1 (stereo not shown) [YU145089] |  |  | 78.3% |  | −1.01 | 4.23 |  | 
32 | c1ccc(CCc2nn3c(-c4ccncc4)nnc3s2)cc1 [YU150981] | 3.65% | 48.70% | 71.2% | 52.35% |  |  |  | 
33 | CC(C)n1c(-c2ccccc2F)n[nH]c1=S [YU145747] | 4.74% | 31.49% | 31.3% | 36.22% |  |  |  | 
34 | O=C(O[C@@H]1Cc2c(O)cc(O)cc2O[C@@H]1c1ccc(O)c(O)c1)c1cc(O)c(O)c(O)c1 [YU153085, EPICATECHIN MONOGALLATE, reference compound] | 85.87% | 8.72% |  | 94.59% |  |  |  | 
35 | CCC(=O)O[C@]1(C(=O)CCl)[C@@H](C)C[C@H]2[C@@H]3CCC4=CC(=O)C=C[C@]4(C)[C@@]3(F)[C@@H](O)C[C@@]21C [YU034506, CLOBETASOL PROPIONATE, reference compound] |  |  | 98.9% |  | −1.34 | 5.62 |  | 

Reference: US20150272939A1, “Identification of Small Molecule Inhibitors of Jumonji AT-Rich Interactive Domain 1A (JARID1A) and 1B (JARID1B) Histone Demethylase” (Yale University, priority 2012, published 2015)
